Molecules are shown by their SMILES.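 Results reflect a 48-hour exposure of cells in 96-well plates to compound at five concentrations. Here, GI50 denotes the concentration required for 50% inhibition of growth.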 The source made the active and inactive calls. Cut-off read from the data, not from the text of the source: active = GI50 up to about 1.1 µM and inactive = higher.

The text below walks through data of ChEMBL document CHEMBL1201862, “PubChem BioAssay data set” (2004).

Test systems include DLD-1; DMS-114; DMS-273; HOP-18; LXFL 529; M19-MEL; SNB-78; XF498; RXF 631.
Common to all, as to test: growth of human tumour cells (NCI), 48 h

Turning to `CN1C(=O)C(=O)N2c3ccc(Cl)cc3C3(c4ccccc4)N=CC12O3` (centres undefined), the GI50 in the test on DLD-1 is 2.83 µM (inactive); in the test on DMS-114 it was 3.21 µM (inactive); with DMS-273, 4.35 µM (inactive); in the test on HOP-18 it was 20.4 µM (inactive); in the test on LXFL 529 it was 3 µM (inactive); with M19-MEL, 3.57 µM (inactive). The GI50 in the test on SNB-78 was 6.7 µM (inactive); in the test with XF498, 3.13 µM (inactive).

With `CC(Oc1ccc2cc(C(=O)c3ccccc3)c(=O)oc2c1)C(=O)O` (centres undefined), the GI50 in the test on DMS-114, in the test on HOP-18, with LXFL 529, in the test with M19-MEL, with RXF 631 and in the test on SNB-78 was > 100 µM (inactive) in each case. Further, the GI50 in the test with XF498 was > 100 µM (inactive).

With `Cc1nnc(N/N=C(/C(=O)C(C#N)c2ccccc2)C(C#N)c2ccccc2)n1N` (centres undefined), the GI50 in the test with DLD-1 was 22.6 µM (inactive); in the test with DMS-114, 3.01 µM (inactive); in the test on DMS-273 it was 17.7 µM (inactive); with HOP-18 it was 15.2 µM (inactive); in the test with LXFL 529, 3.71 µM (inactive); with M19-MEL it was 2.74 µM (inactive). For the same compound, the GI50 in the test with SNB-78 is > 51.1 µM (inactive).

Take `CO[C@@]12[C@H](COC(N)=O)C3=C(C(=O)C(C)=C(N)C3=O)N1C[C@H]1[C@@H]2N1C` (some centres undefined) [PORFIROMYCIN]: the GI50 in the test with DLD-1 was 9.62 µM (inactive); in the test on DMS-273 it was 0.401 µM (active); with HOP-18, 4.75 µM (inactive); with M19-MEL, 2.74 µM (inactive); in the test with SNB-78, 9.68 µM (inactive); with XF498, 3.61 µM (inactive).

For `O=c1c(O)c(-c2ccccc2)n(O)c2ccc(Cl)cc12`, the GI50 is 26.8 µM (inactive) in the test with DLD-1; 23 µM (inactive) with DMS-114; 20.3 µM (inactive) with DMS-273; 47.8 µM (inactive) in the test with HOP-18; 23.8 µM (inactive) in the test on LXFL 529; 27.5 µM (inactive) in the test with RXF 631. Also, in the test on SNB-78, the GI50 is 37.3 µM (inactive).

In the case of `CC1=C(C(=O)Nc2ccc([N+](=O)[O-])cc2)C(c2ccc3c(c2)OCO3)C(C(=O)Nc2ccc([N+](=O)[O-])cc2)=C(C)N1`, the GI50 with DLD-1 was 12 µM (inactive); with DMS-114, 8.55 µM (inactive); in the test with DMS-273 it was 9.77 µM (inactive); with HOP-18, 23.3 µM (inactive); with LXFL 529, 7.96 µM (inactive); in the test with M19-MEL it was 13.3 µM (inactive). Moreover, the GI50 in the test on SNB-78 is 68.4 µM (inactive).

For `CC(C)c1cc(OCC(O)CO)cc(C(C)C)c1` (centres undefined), the GI50 with DLD-1, with DMS-114, in the test on DMS-273, in the test on HOP-18, with LXFL 529 and in the test on M19-MEL was > 100 µM (inactive) each time. The GI50 in the test with SNB-78 and in the test with XF498 was > 100 µM (inactive) throughout.

For the compound `COc1ccc(O)c(C#N)c1C#N`, the GI50 in the test with DMS-273, with LXFL 529, with M19-MEL, with SNB-78 and with XF498 was > 100 µM (inactive) each time.

Take `CCOC(=N)CC(=O)Nc1ccccc1CC`: the GI50 in the test with DLD-1, in the test on DMS-273, in the test with HOP-18, in the test on LXFL 529, in the test on M19-MEL and with RXF 631 was > 100 µM (inactive) throughout. In addition, the GI50 in the test with SNB-78 and in the test with XF498 was > 100 µM (inactive) in each case.

For the compound `Cc1ccc(NC(=O)CCC(=O)C(C#N)c2ccc(Cl)cc2)cc1C` (centres undefined), the GI50 with DLD-1, with DMS-114, in the test with DMS-273, with HOP-18, in the test on LXFL 529 and in the test with M19-MEL was > 100 µM (inactive) throughout. The GI50 with SNB-78 and in the test on XF498 was > 100 µM (inactive) throughout.

On to `COc1cc(C[C@H]2c3cc(OC)c(OC)cc3CCN2C)c(Oc2cc3c(cc2OC)-c2c(OC)c(OC)cc4c2[C@H](C3)N(C)CC4)cc1OC` [THALICARPINE], for which the GI50 with DLD-1 is 15.1 µM (inactive); with DMS-114, 9.1 µM (inactive); in the test on DMS-273, 10.7 µM (inactive); in the test with LXFL 529, 11 µM (inactive); in the test on M19-MEL, 8.87 µM (inactive); in the test on RXF 631 it was 5.52 µM (inactive). In addition, the GI50 with XF498 was 8.97 µM (inactive).

With `C[C@@H]1C(=O)CC2C(C)(C)CCC[C@]2(C)[C@@]12CC[C@]1(C=COC1)O2` (some centres undefined), the GI50 in the test with DMS-114 is 35.6 µM (inactive); in the test on DMS-273 it was 34.2 µM (inactive); with HOP-18, > 100 µM (inactive); in the test with M19-MEL, 38.1 µM (inactive); with SNB-78, 41.2 µM (inactive).

Turning to `CC(C(=O)n1nnc2ccccc21)N(c1ccccc1)c1ccccc1` (centres undefined), the GI50 with DLD-1 is > 100 µM (inactive); in the test on DMS-273 it was 91.6 µM (inactive); in the test on LXFL 529, > 100 µM (inactive); in the test on M19-MEL it was > 100 µM (inactive); in the test with SNB-78 it was > 100 µM (inactive).

Take `COC(=O)c1c[nH]cc1CCc1c[nH]cc1C(=O)OC`: the GI50 in the test with DMS-273, in the test with LXFL 529, in the test with M19-MEL, with SNB-78 and with XF498 was > 100 µM (inactive) in each case.

As for `CC1CC(C)C(C(O)CC2CC(=O)N(c3ccccc3)C(=O)C2)C(O)C1` (centres undefined), the GI50 in the test with DLD-1, in the test with DMS-114, with DMS-273, in the test with HOP-18, in the test with LXFL 529 and in the test with M19-MEL was > 100 µM (inactive) in each case. In addition, the GI50 in the test with SNB-78 is > 100 µM (inactive).

Take `Cc1cc(=O)oc2cc(OCCCOc3ccc4c(C)cc(=O)oc4c3)ccc12`: the GI50 with DLD-1 was > 100 µM (inactive); in the test on DMS-114, > 100 µM (inactive); with DMS-273, 91.4 µM (inactive); with LXFL 529 it was > 100 µM (inactive); in the test with M19-MEL it was > 100 µM (inactive); with RXF 631 it was > 100 µM (inactive). Besides, the GI50 in the test on XF498 is 31.3 µM (inactive).

Regarding `CN(C)CCNC(=O)Cc1ccccc1Nc1c(Cl)cccc1Cl`, the GI50 with DLD-1 was 14.2 µM (inactive); in the test on DMS-114, 17.7 µM (inactive); in the test with DMS-273 it was 16.7 µM (inactive); in the test on LXFL 529, 17.7 µM (inactive); in the test with M19-MEL, 14.8 µM (inactive); in the test on SNB-78 it was 17.7 µM (inactive).

As to `c1ccc(Nc2nnc(CSc3nc(-c4ccccc4)c(-c4ccccc4)[nH]3)s2)cc1`, the GI50 with DLD-1 was 53.8 µM (inactive); with DMS-114, 27.5 µM (inactive); in the test on DMS-273, 16.8 µM (inactive); in the test with LXFL 529, 20.1 µM (inactive); in the test on M19-MEL it was 15.3 µM (inactive); in the test with SNB-78 it was 30.1 µM (inactive).

On to `O=C(CCn1[nH]c(=O)c(Cl)c(Cl)c1=O)NNC(=O)C[n+]1ccccc1`, for which the GI50 in the test on DLD-1, in the test with DMS-114, in the test with DMS-273, with HOP-18, with LXFL 529 and in the test with M19-MEL was > 100 µM (inactive) each time. Moreover, the GI50 in the test on RXF 631 and in the test with XF498 was > 100 µM (inactive) in each case.

As for `CN(C)/C(F)=P\C(F)(F)F` (centres undefined), the GI50 in the test on DLD-1, in the test with DMS-114, in the test on DMS-273, in the test with HOP-18, in the test with LXFL 529 and in the test on M19-MEL was > 100 µM (inactive) throughout. Moreover, the GI50 with SNB-78 and in the test with XF498 was > 100 µM (inactive) in each case.

Turning to `COc1ccc2nc3c(c(NCCCN(C)C)c2c1)CCCC3`, the GI50 in the test with DLD-1 is 7.66 µM (inactive); in the test with DMS-114, 13.9 µM (inactive); in the test with DMS-273, 11.8 µM (inactive); with LXFL 529 it was 12.7 µM (inactive); in the test on M19-MEL, 17.1 µM (inactive); in the test with RXF 631, 14.9 µM (inactive). Besides, the values for the GI50 in the test on SNB-78 and with XF498 were 7.83 µM (inactive) and 4.15 µM (inactive), respectively.

As for `CCOC(=O)Cc1nc2ccccc2s1`, the GI50 was 16.6 µM (inactive) with DLD-1; 22.6 µM (inactive) in the test with DMS-273; 24.8 µM (inactive) with HOP-18; 16 µM (inactive) with LXFL 529; 18.4 µM (inactive) in the test on M19-MEL; 16.8 µM (inactive) in the test with RXF 631. In addition, the GI50 was 18.1 µM (inactive) with SNB-78 and 14.8 µM (inactive) in the test on XF498.

For `CCCCCCCCCCCCCCCC(=O)OCCOCCOCCOCCOCCOC(=O)CCCCCCCCCCCCCCC`, the GI50 in the test with DLD-1, with DMS-114, in the test with DMS-273, with HOP-18, with LXFL 529 and in the test with M19-MEL was > 100 µM (inactive) throughout. Also, the GI50 in the test on RXF 631 and in the test on SNB-78 was > 100 µM (inactive) each time.

With `O=C(O)CN(c1ccccc1)S(=O)(=O)c1ccc(NC(=O)c2ccccc2)cc1`, the GI50 with DLD-1, in the test on DMS-273, with HOP-18, with LXFL 529, with M19-MEL and with XF498 was > 100 µM (inactive) each time.

As to `COC(=O)c1c(-c2cc(OC)c(OC)c(OC)c2)oc2ccccc2c1=O`, the GI50 in the test with DLD-1 is 52 µM (inactive); with DMS-273 it was 84.9 µM (inactive); in the test with HOP-18, > 100 µM (inactive); with LXFL 529 it was 63.4 µM (inactive); in the test with M19-MEL, > 100 µM (inactive); in the test on SNB-78, > 100 µM (inactive).

Take `COC(=O)C1CC/C(=N/c2ccc(C)cc2C)N1` (centres undefined): the GI50 with DLD-1, in the test on DMS-273, in the test with HOP-18, in the test with LXFL 529, with M19-MEL and in the test with RXF 631 was > 100 µM (inactive) in each case. For the same compound, the GI50 in the test with SNB-78 and in the test on XF498 was > 100 µM (inactive) throughout.
